Consider seven compounds from PMC11592078, “Synthesis, Analytical Characterization, and Human CB1 Receptor Binding Studies of the Chloroindole Analogues of the Synthetic Cannabinoid MDMB-CHMICA” (Biomolecules, 2024).

The target in experiment [1] is T1, hCB1 receptor (Homo sapiens, UniProt P21554).
T1 construct: purchased Perkin Elmer; host or cells: HEK293-EBNA
Description: competitive ligand binding assay with [3H]-CP-55,940 on hCB1 membrane preparations of HEK293-EBNA cells.

Experiment [2] has as its target T1, hCB1 receptor. Details: method as in earlier work. Conditions: read-out: Ki at hCB1; comparable assay setup; ref 31 (Schoeder et al.); cited from earlier work.

As usually defined, the IC50 is the concentration that inhibits the measured activity by half. The Ki is the equilibrium dissociation constant of an inhibitor or competing ligand from its target.

Like-named read-outs stand apart in the source and are kept apart here.

T1 sequence (P21554 whole entry): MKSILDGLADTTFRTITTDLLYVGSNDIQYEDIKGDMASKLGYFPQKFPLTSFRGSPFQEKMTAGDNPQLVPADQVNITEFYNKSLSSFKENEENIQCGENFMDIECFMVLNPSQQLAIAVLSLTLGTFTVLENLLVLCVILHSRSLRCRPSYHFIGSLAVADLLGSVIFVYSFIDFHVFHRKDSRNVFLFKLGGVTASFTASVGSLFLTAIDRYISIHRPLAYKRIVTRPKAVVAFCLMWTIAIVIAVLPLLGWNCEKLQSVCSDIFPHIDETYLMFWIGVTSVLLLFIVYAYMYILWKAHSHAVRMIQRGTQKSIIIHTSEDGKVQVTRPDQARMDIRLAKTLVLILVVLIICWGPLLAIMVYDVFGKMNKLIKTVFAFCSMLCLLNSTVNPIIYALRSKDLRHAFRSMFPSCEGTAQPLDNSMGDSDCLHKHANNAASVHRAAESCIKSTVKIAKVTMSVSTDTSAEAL

As to `COC(=O)[C@@H](NC(=O)c1cn(CC2CCCCC2)c2c(Cl)cccc12)C(C)(C)C` [7-Chloro-MDMB-CHMICA, Methyl (S)-2-(7-chloro-1-(cyclohexylmethyl)-1H-indole-3-carboxamido)-3,3-dimethylbutanoate], in experiment [1], the IC50 came out at 28.8 nM and the Ki came to 0.7 nM.
Consider `COC(=O)C(NC(=O)c1cn(CC2CCCCC2)c2ccccc12)C(C)(C)C` (stereo not drawn) [MDMB-CHMICA, Methyl 2-[[1-(cyclohexylmethyl)-1H-indole-3-carbonyl]amino]-3,3-dimethylbutanoate], for which the Ki is 0.951 nM in experiment [1] and 0.41 ± 0.141 nM in experiment [2].
Turning to `COC(=O)[C@@H](NC(=O)c1cn(CC2CCCCC2)c2ccc(Cl)cc12)C(C)(C)C` [5-Chloro-MDMB-CHMICA, Methyl (S)-2-(5-chloro-1-(cyclohexylmethyl)-1H-indole3-carboxamido)-3,3-dimethylbutanoate], in experiment [1], the IC50 came out at 402 nM and affinity was put at a Ki of 9.81 nM.
Turning to `COC(=O)[C@@H](NC(=O)c1cn(CC2CCCCC2)c2cccc(Cl)c12)C(C)(C)C` [4-Chloro-MDMB-CHMICA, Methyl (S)-2-(4-chloro-1-(cyclohexylmethyl)-1H-indole-3-carboxamido)-3,3-dimethylbutanoate], in experiment [1], the IC50 worked out at 268 nM and the Ki stood at 6.55 nM.
In experiment [1], `CCCCCn1cc(C(=O)c2cccc3ccccc23)c2ccccc21` [JWH-018, naphthalen-1-yl(1-pentyl-1H-indol-3-yl)methanone, reference compound] returned an IC50 of 103 nM and a Ki of 2.69 nM.
In experiment [1], `COC(=O)[C@@H](NC(=O)c1c(Cl)n(CC2CCCCC2)c2ccccc12)C(C)(C)C` [2-Chloro-MDMB-CHMICA, Methyl (S)-2-(2-chloro-1-(cyclohexylmethyl)-1H-indole-3-carboxamido)-3,3-dimethylbutanoate] had an IC50 of 23.6 nM and a Ki of 0.58 nM. Also, in experiment [1] (comparison of the substitution positions), the “rank of Ki among the chloro analogues” value was “lowest Ki value”.
In experiment [1], `COC(=O)[C@@H](NC(=O)c1cn(CC2CCCCC2)c2cc(Cl)ccc12)C(C)(C)C` [6-Chloro-MDMB-CHMICA, Methyl (S)-2-(6-chloro-1-(cyclohexylmethyl)-1H-indole-3-carboxamido)-3,3-dimethylbutanoate] showed an IC50 of 31.6 nM and a Ki of 0.77 nM.
